Laboratory results taken from article PMC10427391, “Identification of Cytochrome P450 2E1 as a Novel Target in Glioma and Development of Its Inhibitor as an Anti‐Tumor Agent” (Advanced Science, 2023).

Legend:
[1] = Long-term Q11 treatment, safety, mice; details: 26 weeks
[2] = test system: GL261 cells; assay: Migration (wound assay) of GL261 cells in co-culture with microglia/macrophages; details: 24 h
[3] = test system: U251 cells; assay: U251 glioma cells with conditioned medium of CYP2E1-overexpressing HMC-3 cells (proliferation, migration, apoptosis)
[4] = Bioavailability and pharmacokinetics of Q11 in rats; format: in vivo, SD rats
Procedure: Eight healthy male SD rats were randomly divided into 2 groups (4 rats in each group) using a double‐period self‐cross control principle. The first group was given Q11 (30 mg kg^−1, i.g), and the second group was given Q11 (30 mg kg^−1, i.v.). One week later, a second round of experiments was conducted in which Q11 (30 mg kg^−1, i.v.) was given to the first group of rats and Q11 (30 mg kg^−1, i.g) was given to the second group. Collection of orbital blood was carried out at 0, 2, 7, 15, 30 min and 1, 2, 4, 6, 9, 12, 24 h after Q11 administration.
Thirty healthy male SD rats were randomly divided into three equal groups. Q11 was administrated at 6, 30, or 150 mg kg^−1 (i.g) to these three groups. Collection of orbital blood was carried out at 0, 2, 7, 15, 30 min and 1, 2, 4, 6, 9, 12, 24, 36 h after Q11 administration.

[5] = test system: GBM; assay: Intracranial glioma models overall (rats, mice, nude mice)
[6] = test system: glioma induced by GL261 cells; assay: Intracranial orthotopic glioma model induced by GL261 cells; details: C57BL/6 mouse
[7] = test system: U251 cells; assay: Direct effect on glioma cells (CCK-8), U251; details: concentrations below 100 µM
[8] = test system: other CYP enzymes (CYP1A2, CYP2B6, CYP2C8, CYP2C9, CYP2C19, CYP2D6, CYP3A4/5); assay: Selectivity, microsomal incubation, remaining CYPs; format: biochemical; details: probe substrates
Procedure: (§1) A 100 µL microsomal incubation system^[ [44] ^] contained probe drugs for each CYP with different series of concentrations, Q11, phosphate buffer, EDTA, magnesium chloride, and substrates (phenacetin for CYP1A2, coumarin for CYP2A6, bupropion for CYP2B6, paclitaxel for CYP2C8, tolbutamide for CYP2C9, omeprazole for CYP2C19, dextromethorphan for CYP2D6, chlorzoxazone for CYP2E1, midazolam for CYP3A4/5). HPLC‐UV and HPLC‐FLD were used to measure the number of metabolites.

[9] = test system: glioma induced by C6 cells; assay: Intracranial orthotopic glioma model induced by C6 cells; details: SD rat, oral 30 mg kg^−1
[10] = test system: GL261 cells; assay: Apoptosis (Annexin V-FITC/PI) of GL261 cells in co-culture with microglia/macrophages
[11] = test system: GL261 cells; assay: Direct effect on glioma cells (CCK-8), GL261; details: concentrations below 100 µM
[12] = test system: C6; assay: Direct effect on glioma cells (CCK-8), C6; details: concentrations below 100 µM
[13] = test system: intracerebral glioma; assay: Kaplan–Meier survival of mice with intracerebral glioma; details: Q11 30 mg kg^−1 vs saline, P log-rank = 0.0017
[14] = test system: GL261 cells; assay: Cell cycle of GL261 cells in co-culture with primary microglia
[15] = molecular target: CYP2E1 (Homo sapiens, UniProt P05181); assay: In vitro inhibition of CYP2E1 (chlorzoxazone as substrate); format: biochemical; parameters: A 100 µL microsomal incubation system; from tissue
Sequence of CYP2E1 (P05181 whole entry): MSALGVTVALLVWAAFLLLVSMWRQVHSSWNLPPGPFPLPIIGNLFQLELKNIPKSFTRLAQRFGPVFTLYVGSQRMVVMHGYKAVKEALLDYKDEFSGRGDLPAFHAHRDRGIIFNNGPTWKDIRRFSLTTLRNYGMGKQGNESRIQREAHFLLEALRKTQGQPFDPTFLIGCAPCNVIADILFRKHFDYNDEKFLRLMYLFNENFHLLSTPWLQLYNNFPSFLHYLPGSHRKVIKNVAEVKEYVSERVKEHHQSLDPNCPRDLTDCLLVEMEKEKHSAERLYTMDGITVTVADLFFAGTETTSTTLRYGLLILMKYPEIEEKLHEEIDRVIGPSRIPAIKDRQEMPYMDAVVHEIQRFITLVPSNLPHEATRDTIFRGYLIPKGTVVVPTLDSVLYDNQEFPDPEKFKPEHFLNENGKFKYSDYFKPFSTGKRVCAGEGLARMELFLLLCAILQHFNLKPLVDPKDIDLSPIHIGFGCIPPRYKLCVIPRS
Procedure: Chlorzoxazone with a concentration of 62.5 µM and inhibitors with different gradient concentrations were selected to plot the inhibition of chlorzoxazone and to calculate the IC50 of the inhibitor. A Lineweaver–Burk curve was used to determine the mechanism and calculate the K i of inhibitors of CYP2E1.
as §1

[16] = molecular target: T1, CYP2A6 (Homo sapiens, UniProt P11509); assay: Selectivity, microsomal incubation, CYP2A6 (coumarin as substrate); format: biochemical
T1 construct: A 100 µL microsomal incubation system; from tissue
T1 sequence (P11509 1-494): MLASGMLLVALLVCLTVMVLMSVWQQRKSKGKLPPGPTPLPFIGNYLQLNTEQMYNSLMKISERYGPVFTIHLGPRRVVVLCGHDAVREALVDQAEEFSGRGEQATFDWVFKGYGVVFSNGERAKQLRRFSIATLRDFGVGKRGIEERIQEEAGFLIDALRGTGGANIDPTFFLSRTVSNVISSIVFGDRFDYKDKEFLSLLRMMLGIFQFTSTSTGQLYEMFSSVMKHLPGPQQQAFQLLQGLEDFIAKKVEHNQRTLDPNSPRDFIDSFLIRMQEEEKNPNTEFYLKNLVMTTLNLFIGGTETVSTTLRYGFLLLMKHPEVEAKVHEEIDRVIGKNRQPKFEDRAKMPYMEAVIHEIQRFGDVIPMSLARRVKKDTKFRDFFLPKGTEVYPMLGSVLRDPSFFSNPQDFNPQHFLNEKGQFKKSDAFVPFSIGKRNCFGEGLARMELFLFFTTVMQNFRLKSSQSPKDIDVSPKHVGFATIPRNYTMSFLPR
Procedure: as §1

[17] = Long-term Q11 treatment, safety, rats; details: 12 weeks
[18] = Central inhibitory effect; details: clomethiazole: at a dose that inhibited CYP2E1
[19] = test system: U251 cells; assay: Proliferation of glioma cells in indirect co-culture with microglia/macrophages, U251; details: co-cultured with primary microglia, RAW 264.7 or THP-1 macrophages
[20] = test system: microglia/macrophage of tumor microenvironment; assay: Immunohistochemistry of CD206 and CD86 on tumor tissues; details: Q11 group vs model
Procedure: Paraffin‐embedded specimens were cut into 4‐µm sections. After deparaffinization with xylene and rehydration, antigen retrieval was performed. For immunohistochemistry (IHC), endogenous peroxidase activity was blocked with 3% H2O2 in methanol. Primary antibodies against CYP2E1 (1:200, Abcam, ab28146), Iba‐1 (1:150, Servicebio, China), CD206 (1:150, Servicebio), and CD86 (1:150, Servicebio) were used and results were evaluated blindly by two pathologists and quantified by IPP 6.0 soft.

[21] = test system: inflammatory factors in TME; assay: Inflammatory factors in the tumor microenvironment of C6 orthotopic xenograft model; details: C6 model rats

CC(=O)c1scnc1C [Compound Q11, 1‐(4‐methyl‐5‐thialzolyl) ethanone]
adverse reactions on long-term treatment [1]: no adverse reactions | migration of GL261 cells [2]: restrained migration | tumor-promoting effects of upregulating CYP2E1 in HMC-3 (proliferation, migration, apoptosis of U251) [3]: reversed | Tmax ([4]; male, SD, rat, blood, 30 mg kg^−1, oral administration, read-out: mean T max): 27 min | half-life ([4]; male, SD, rat, blood, 30 mg kg^−1, oral administration, read-out: mean t 1/2 (converted)): 183 min | bioavailability ([4]; male, SD, rat, blood, oral vs intravenous, 30 mg kg^−1): 94.7% | dose dependence of pharmacokinetic parameters ([4]; oral, dose 6 to 150 mg kg^−1): proportional changes | tumor-induced weight loss ([5]; intracranial xenografts): obviously improved | inhibitory effect on glioma growth compared with TMZ ([5]; orthotopic glioma models): superior to that of TMZ | growth of glioma (brain weight, tumor diameter, volumes) [6]: significantly inhibited | direct killing of U251 cells [7]: did not directly kill | inhibition of other CYP enzymes [8]: no inhibition | growth of tumor (brain weight, tumor diameter, tumor weight) [9]: significantly suppressed | apoptosis of GL261 cells [10]: promoted apoptosis | direct killing of GL261 cells [11]: did not directly kill | direct killing of C6 cells [12]: did not directly kill | mean survival time [13]: 32 days | cell cycle of GL261 cells [14]: arrested the cell cycle in S phase | IC50 [15]: 1640 nM | Ki [15]: 897 nM | type of inhibition of CYP2E1 ([15]; Lineweaver–Burk plot): competitive‐noncompetitive mixed‐type inhibitor | IC50 [16]: 76.2 µM | adverse reactions on long-term treatment [17]: no adverse reactions | central inhibitory effect [18]: does not show a central inhibitory effect | proliferation of U251 cells in co-culture [19]: significantly inhibited | CD86 (M1 marker) positive cells [20]: increased significantly | number of CD206 (M2 marker) positive cells [20]: significantly reduced | M1-like inflammatory factors (IL-1β, TNF-α) [21]: increased | M2-like inflammatory factors (IL-4, TGF-β, IL-10, VEGFB, IL-6) [21]: significantly decreased
